# Measured values reported in US7338950B2, “Amide compounds as ion channel ligands and uses thereof” (Renovis, Inc., priority 2003, dated 2008).
# Test system: VR1 receptor (293 cells expressing capsaicin-insensitive VR1 receptor variants)
# Assay: High throughput screening of VR1 antagonists using a calcium imaging assay (Fura2, pH 5.1 stimulus);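 note: Fura2 ratiometric fluorescence read every 4 s over 3 min, response taken as peak ratio minus baseline before pre-treatment, compound pre-treatment preceding acid challenge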
# Details: 1 uM compound; inhibition of calcium ion influx
row,SMILES,% Inhibition @ 1 uM
1,COc1cc(NC(=O)c2ccc(-c3ncccc3Cl)cn2)cc(OC)c1OC [Compound 1356],+ (compound exhibited 0-25% inhibition of calcium ion influx induced by capsaicin stimulation)
2,O=C(Nc1ccc(Cl)cc1Cl)c1ccc(-c2ncccc2Cl)cc1 [Compound 1033],+ (compound exhibited 0-25% inhibition of calcium ion influx induced by capsaicin stimulation)
3,O=C(Nc1ccccc1)c1ccc(-c2ncccc2Cl)cc1 [Compound 1020],+ (compound exhibited 0-25% inhibition of calcium ion influx induced by capsaicin stimulation)
4,CC(C)(C)c1ccc(NC(=O)c2ccc(-c3ncccc3Cl)cc2)cc1 [Compound 1041],++++ (compound exhibited 75% or greater inhibition of calcium ion influx induced by capsaicin stimulation)
5,CCCOc1ccc(NC(=O)c2ccc(-c3ncccc3Cl)cc2)cc1 [Compound 1291],+ (compound exhibited 0-25% inhibition of calcium ion influx induced by capsaicin stimulation)
6,O=C(Nc1cccnc1)c1ccc(-c2ncccc2Cl)cc1 [Compound 1025],++++ (compound exhibited 75% or greater inhibition of calcium ion influx induced by capsaicin stimulation)
7,CCCCc1ccc(NC(=O)c2ccc(-c3ncccc3Cl)cn2)cc1 [Compound 1319],+++ (compound exhibited 50-75% inhibition of calcium ion influx induced by capsaicin stimulation)
8,O=C(Nc1ccc2cn[nH]c2c1)c1ccc(-c2ncccc2Cl)c(F)c1 [Compound 1189],+++ (compound exhibited 50-75% inhibition of calcium ion influx induced by capsaicin stimulation)
9,O=C(Nc1ccncn1)c1ccc(-c2ncccc2Cl)cn1 [Compound 1336],++++ (compound exhibited 75% or greater inhibition of calcium ion influx induced by capsaicin stimulation)
10,COc1ccccc1NC(=O)c1ccc(-c2ncccc2Cl)c(OC)c1 [Compound 1211],++ (compound exhibited 25-50% inhibition of calcium ion influx induced by capsaicin stimulation)
11,CCOc1ccc(NC(=O)c2ccc(-c3ncccc3Cl)cc2)cc1 [Compound 1298],+ (compound exhibited 0-25% inhibition of calcium ion influx induced by capsaicin stimulation)
12,O=C(Nc1ccc(F)c(F)c1)c1ccc(-c2ncccc2Cl)cn1 [Compound 1363],++++ (compound exhibited 75% or greater inhibition of calcium ion influx induced by capsaicin stimulation)
13,O=C(Nc1ccc(N2CCOCC2)cc1)c1ccc(-c2ncccc2Cl)cc1 [Compound 1062],+ (compound exhibited 0-25% inhibition of calcium ion influx induced by capsaicin stimulation)
14,COc1ccc(NC(=O)c2ccc(-c3ncccc3Cl)cc2)cc1 [Compound 1022],++ (compound exhibited 25-50% inhibition of calcium ion influx induced by capsaicin stimulation)
15,CCn1c2ccccc2c2cc(NC(=O)c3ccc(-c4ncccc4Cl)cn3)ccc21 [Compound 1345],++++ (compound exhibited 75% or greater inhibition of calcium ion influx induced by capsaicin stimulation)
16,CCn1c2ccccc2c2cc(NC(=O)c3ccc(-c4ccccc4Cl)c(OC)c3)ccc21 [Compound 1251],+ (compound exhibited 0-25% inhibition of calcium ion influx induced by capsaicin stimulation)
17,COc1cc(C(=O)Nc2ccncc2)ccc1-c1ncccc1Cl [Compound 1235],++++ (compound exhibited 75% or greater inhibition of calcium ion influx induced by capsaicin stimulation)
18,CC(C)Oc1cccc(NC(=O)c2ccc(-c3ncccc3Cl)c(F)c2)c1 [Compound 1194],+ (compound exhibited 0-25% inhibition of calcium ion influx induced by capsaicin stimulation)
19,O=C(Nc1ccc(F)c(F)c1)c1ccc(-c2ncccc2Cl)cc1 [Compound 1296],+ (compound exhibited 0-25% inhibition of calcium ion influx induced by capsaicin stimulation)
20,O=C(Nc1ccccc1Cl)c1ccc(-c2ncccc2Cl)cc1 [Compound 1032],+ (compound exhibited 0-25% inhibition of calcium ion influx induced by capsaicin stimulation)
21,Cc1cc(C)nc(NC(=O)c2ccc(-c3ncccc3Cl)cn2)c1 [Compound 1329],+ (compound exhibited 0-25% inhibition of calcium ion influx induced by capsaicin stimulation)
22,COc1cc(C(=O)Nc2ccc(Cl)c(C(=O)O)c2)ccc1-c1ncccc1Cl [Compound 1259],++++ (compound exhibited 75% or greater inhibition of calcium ion influx induced by capsaicin stimulation)
23,COc1cc(C(=O)Nc2cc(C)nc(C)n2)ccc1-c1ncccc1Cl [Compound 1249],+ (compound exhibited 0-25% inhibition of calcium ion influx induced by capsaicin stimulation)
24,CN(C)c1cccc(NC(=O)c2ccc(-c3ncccc3Cl)cc2)c1 [Compound 1060],++++ (compound exhibited 75% or greater inhibition of calcium ion influx induced by capsaicin stimulation)
25,O=C(Nc1ccc(OC(F)(F)F)cc1)c1ccc(-c2ncccc2Cl)c(F)c1 [Compound 1192],++ (compound exhibited 25-50% inhibition of calcium ion influx induced by capsaicin stimulation)
26,COc1ccc(NC(=O)c2ccc(-c3ncccc3Cl)cc2F)cc1Cl [Compound 1096],++ (compound exhibited 25-50% inhibition of calcium ion influx induced by capsaicin stimulation)

row,SMILES,% Inhibition @ 1 uM
1,CCOC(=O)c1ccc(NC(=O)c2ccc(-c3ncccc3Cl)cn2)cc1 [Compound 1350],+ (compound exhibited 0-25% inhibition of calcium ion influx induced by capsaicin stimulation)
2,Cc1ccnc(NC(=O)c2ccc(-c3ncccc3Cl)c(F)c2)c1 [Compound 1162],++++ (compound exhibited 75% or greater inhibition of calcium ion influx induced by capsaicin stimulation)
3,CCCCc1ccc(NC(=O)c2ccc(-c3ncccc3Cl)c(OC)c2)cc1 [Compound 1221],++ (compound exhibited 25-50% inhibition of calcium ion influx induced by capsaicin stimulation)
4,COc1cc(C(=O)Nc2ccccc2C#N)ccc1-c1ncccc1Cl [Compound 1209],+ (compound exhibited 0-25% inhibition of calcium ion influx induced by capsaicin stimulation)
5,O=C(Nc1ccc(OCc2ccccc2)cc1)c1ccc(-c2ncccc2Cl)cn1 [Compound 1349],+ (compound exhibited 0-25% inhibition of calcium ion influx induced by capsaicin stimulation)
6,O=C(Nc1ccc2ccccc2c1)c1ccc(-c2ncccc2Cl)cn1 [Compound 1348],++ (compound exhibited 25-50% inhibition of calcium ion influx induced by capsaicin stimulation)
7,N#Cc1cccc(NC(=O)c2ccc(-c3ncccc3Cl)c(F)c2)c1 [Compound 1141],++++ (compound exhibited 75% or greater inhibition of calcium ion influx induced by capsaicin stimulation)
8,O=C(Nc1cccc(Cl)c1)c1ccc(-c2ncccc2Cl)cc1 [Compound 1029],+ (compound exhibited 0-25% inhibition of calcium ion influx induced by capsaicin stimulation)
9,COc1cc(C(=O)Nc2ccc(F)cc2[N+](=O)[O-])ccc1-c1ncccc1Cl [Compound 1227],++++ (compound exhibited 75% or greater inhibition of calcium ion influx induced by capsaicin stimulation)
10,O=C(Nc1ccc(C(F)(F)F)cc1)c1ccc(-c2ncccc2Cl)cn1 [Compound 1325],+ (compound exhibited 0-25% inhibition of calcium ion influx induced by capsaicin stimulation)
11,Cc1cccnc1NC(=O)c1ccc(-c2ncccc2Cl)cc1 [Compound 1065],++ (compound exhibited 25-50% inhibition of calcium ion influx induced by capsaicin stimulation)
12,CCN(CC)CCOC(=O)c1ccc(NC(=O)c2ccc(-c3ncccc3Cl)cc2)cc1 [Compound 1282],+ (compound exhibited 0-25% inhibition of calcium ion influx induced by capsaicin stimulation)
13,COc1cc(C(=O)Nc2cccc(Cl)c2)ccc1-c1ncccc1Cl [Compound 1210],+ (compound exhibited 0-25% inhibition of calcium ion influx induced by capsaicin stimulation)
14,COc1ccc(NC(=O)c2ccc(-c3ncccc3Cl)cn2)cn1 [Compound 1341],++ (compound exhibited 25-50% inhibition of calcium ion influx induced by capsaicin stimulation)
15,COc1cc(C(=O)Nc2ccc(F)c(F)c2)ccc1-c1ncccc1Cl [Compound 1271],+++ (compound exhibited 50-75% inhibition of calcium ion influx induced by capsaicin stimulation)
16,CCC1c2ccccc2-c2cc(NC(=O)c3ccc(-c4ncccc4Cl)cc3)ccc21 (stereo not drawn) [Compound 1072],++ (compound exhibited 25-50% inhibition of calcium ion influx induced by capsaicin stimulation)
17,O=C(Nc1ccc(C(F)(F)F)cn1)c1ccc(-c2ncccc2Cl)cc1F [Compound 1114],+ (compound exhibited 0-25% inhibition of calcium ion influx induced by capsaicin stimulation)
18,COc1cccc(NC(=O)c2ccc(-c3ncccc3Cl)c(F)c2)c1 [Compound 1136],+ (compound exhibited 0-25% inhibition of calcium ion influx induced by capsaicin stimulation)
19,O=C(Nc1ccc(F)cc1[N+](=O)[O-])c1ccc(-c2ncccc2Cl)c(F)c1 [Compound 1149],++++ (compound exhibited 75% or greater inhibition of calcium ion influx induced by capsaicin stimulation)
20,COc1cc(C(=O)Nc2nccs2)ccc1-c1ncccc1Cl [Compound 1252],+ (compound exhibited 0-25% inhibition of calcium ion influx induced by capsaicin stimulation)
21,CC(C)(CO)NC(=O)c1ccc(-c2ncccc2Cl)cc1 [Compound 1058],+ (compound exhibited 0-25% inhibition of calcium ion influx induced by capsaicin stimulation)
22,Cc1ccc(NC(=O)c2ccc(-c3ncccc3Cl)c(F)c2)c(C)c1 [Compound 1145],++++ (compound exhibited 75% or greater inhibition of calcium ion influx induced by capsaicin stimulation)
23,COc1ccc(NC(=O)c2ccc(-c3ncccc3Cl)cc2F)cn1 [Compound 1120],+ (compound exhibited 0-25% inhibition of calcium ion influx induced by capsaicin stimulation)
24,COc1cc(C(=O)Nc2ccc(C)cc2C)ccc1-c1ncccc1Cl [Compound 1223],++++ (compound exhibited 75% or greater inhibition of calcium ion influx induced by capsaicin stimulation)
25,COc1cc(NC(=O)c2ccc(-c3ncccc3Cl)cc2)cc(C(F)(F)F)c1 [Compound 1045],++ (compound exhibited 25-50% inhibition of calcium ion influx induced by capsaicin stimulation)
